Source: patent publication EP4741392A1, “1H-PYRAZOLO[4,3-C]PYRIDINE COMPOUND, AND COMPOSITION THEREOF AND USE THEREOF” (Shenzhen TargetRx Co., Ltd., priority 2023, dated 2025)

Tests used:
Format in all cases: biochemical
BTK C481S = target: T1, BTK C481S (Homo sapiens, UniProt Q06187, C481S); test: Kinase activity inhibition assay (HTRF TK Kit)
T1 construct: purchased Carna 08-547
Outline: (§1)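 HTRF TK-substrate phosphorylation assay, set up on ice, then the kinase reaction ran at room temperature in 1% DMSO. Detection used streptavidin-XL665 plus TK antibody-cryptate for 1 h at RT, and the 665/620 nm ratio was read. IC50s came from a four-parameter nonlinear fit of % inhibition against log concentration.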

BTK T474I = target: T2, BTK T474I (Homo sapiens, UniProt Q06187, T474I); test: Kinase activity inhibition assay (HTRF TK Kit)
T2 construct: purchased SignalChem B10-12HH
Outline: as §1

BTK kinase = target: T3, BTK kinase (Homo sapiens, UniProt Q06187); test: Kinase activity inhibition assay (HTRF TK Kit)
T3 construct: purchased Invitrogen PV3587
Outline: as §1

EGFR = target: T4, EGFR (Homo sapiens, UniProt P00533); test: Kinase activity inhibition assay (HTRF TK Kit), selectivity
T4 construct: purchased Carna 08-115
Outline: as §1

ITK = target: T5, ITK (Homo sapiens, UniProt Q08881); test: as above
T5 construct: purchased Carna 08-181
T5 sequence (Q08881 1-620): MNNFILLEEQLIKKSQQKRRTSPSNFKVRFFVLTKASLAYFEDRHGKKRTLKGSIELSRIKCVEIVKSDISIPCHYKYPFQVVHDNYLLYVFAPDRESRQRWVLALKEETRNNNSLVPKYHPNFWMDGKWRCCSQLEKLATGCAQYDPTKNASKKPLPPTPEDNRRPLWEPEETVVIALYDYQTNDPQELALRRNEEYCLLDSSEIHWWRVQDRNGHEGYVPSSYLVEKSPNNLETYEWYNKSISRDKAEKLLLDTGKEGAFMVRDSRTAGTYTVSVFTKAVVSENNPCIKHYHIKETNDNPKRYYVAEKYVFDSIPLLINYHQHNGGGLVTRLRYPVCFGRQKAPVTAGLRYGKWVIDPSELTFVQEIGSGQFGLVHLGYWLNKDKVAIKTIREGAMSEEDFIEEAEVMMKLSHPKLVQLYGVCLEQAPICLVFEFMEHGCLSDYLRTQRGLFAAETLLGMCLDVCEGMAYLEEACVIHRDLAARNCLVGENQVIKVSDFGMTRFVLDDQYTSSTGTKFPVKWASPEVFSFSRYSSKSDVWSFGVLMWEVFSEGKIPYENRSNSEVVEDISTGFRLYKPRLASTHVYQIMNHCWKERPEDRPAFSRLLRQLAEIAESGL
Outline: as §1

TEC = target: T6, TEC (Homo sapiens, UniProt P42680); test: as above
T6 construct: purchased Carna 08-182
T6 sequence (P42680 1-631): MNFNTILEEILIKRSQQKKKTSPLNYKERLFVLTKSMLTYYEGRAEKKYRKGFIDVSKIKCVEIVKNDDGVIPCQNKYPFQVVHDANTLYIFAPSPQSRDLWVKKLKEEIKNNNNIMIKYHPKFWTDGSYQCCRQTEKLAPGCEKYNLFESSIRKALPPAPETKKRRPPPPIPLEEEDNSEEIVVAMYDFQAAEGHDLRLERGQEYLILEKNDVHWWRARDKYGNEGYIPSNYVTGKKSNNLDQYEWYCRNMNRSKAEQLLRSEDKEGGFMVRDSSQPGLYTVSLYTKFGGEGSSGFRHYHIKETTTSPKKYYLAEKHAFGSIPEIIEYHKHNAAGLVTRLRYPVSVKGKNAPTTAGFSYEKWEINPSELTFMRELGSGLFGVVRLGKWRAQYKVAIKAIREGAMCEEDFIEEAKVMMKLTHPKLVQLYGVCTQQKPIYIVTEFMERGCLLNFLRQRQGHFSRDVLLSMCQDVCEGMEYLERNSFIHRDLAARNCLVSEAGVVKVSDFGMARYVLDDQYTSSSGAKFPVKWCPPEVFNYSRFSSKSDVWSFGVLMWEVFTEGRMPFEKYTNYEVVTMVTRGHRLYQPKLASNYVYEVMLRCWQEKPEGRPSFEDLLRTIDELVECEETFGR
Outline: as §1

T3 sequence (Q06187 whole entry): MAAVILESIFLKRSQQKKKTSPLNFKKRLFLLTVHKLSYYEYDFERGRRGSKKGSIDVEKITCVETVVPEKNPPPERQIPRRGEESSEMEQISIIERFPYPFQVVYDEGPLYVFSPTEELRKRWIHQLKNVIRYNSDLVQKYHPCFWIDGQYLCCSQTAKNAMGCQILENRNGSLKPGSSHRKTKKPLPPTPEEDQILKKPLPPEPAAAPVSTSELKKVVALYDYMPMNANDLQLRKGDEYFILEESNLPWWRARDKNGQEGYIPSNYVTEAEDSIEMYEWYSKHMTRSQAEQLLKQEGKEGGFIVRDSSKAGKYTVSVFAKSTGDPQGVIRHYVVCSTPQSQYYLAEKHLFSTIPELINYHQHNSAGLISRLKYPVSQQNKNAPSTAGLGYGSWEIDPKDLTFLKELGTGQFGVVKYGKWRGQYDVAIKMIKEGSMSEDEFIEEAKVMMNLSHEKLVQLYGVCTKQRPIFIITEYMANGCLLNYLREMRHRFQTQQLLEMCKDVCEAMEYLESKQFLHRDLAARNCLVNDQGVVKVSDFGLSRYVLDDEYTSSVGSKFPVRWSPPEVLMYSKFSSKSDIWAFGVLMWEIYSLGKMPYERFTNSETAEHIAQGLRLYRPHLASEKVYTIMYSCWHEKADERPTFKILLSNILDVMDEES
T1 sequence (Q06187 whole entry C481S): as the sequence (Q06187 whole entry) above, with C481S counted along it
T4 sequence (P00533 669-1210 limits assumed): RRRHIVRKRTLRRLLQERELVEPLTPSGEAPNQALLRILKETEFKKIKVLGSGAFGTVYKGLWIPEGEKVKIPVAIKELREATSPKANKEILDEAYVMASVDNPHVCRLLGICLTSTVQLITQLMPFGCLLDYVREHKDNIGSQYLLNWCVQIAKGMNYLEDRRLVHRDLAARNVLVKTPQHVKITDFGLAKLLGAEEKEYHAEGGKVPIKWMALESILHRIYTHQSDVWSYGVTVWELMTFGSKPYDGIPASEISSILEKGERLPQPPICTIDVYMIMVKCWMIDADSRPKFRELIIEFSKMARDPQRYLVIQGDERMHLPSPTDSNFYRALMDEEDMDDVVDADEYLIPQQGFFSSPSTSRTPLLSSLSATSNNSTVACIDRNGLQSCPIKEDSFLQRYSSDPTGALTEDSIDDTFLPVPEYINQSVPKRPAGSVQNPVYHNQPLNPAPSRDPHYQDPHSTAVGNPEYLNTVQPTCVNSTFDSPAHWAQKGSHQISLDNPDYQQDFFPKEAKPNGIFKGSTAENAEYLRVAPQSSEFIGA
T2 sequence (Q06187 whole entry T474I): as the sequence (Q06187 whole entry) above, with T474I counted along it

Row | IC50 (BTK C481S) [nM] | IC50 (BTK T474I) [nM] | IC50 (BTK kinase) [nM] | IC50 (EGFR) [nM] | IC50 (ITK) [nM] | IC50 (TEC) [nM] | SMILES
1 | 1 to 5 | 5 to 50 | 1 to 5 | 50 to 500 | > 500 | 5 to 50 | COc1ccc(F)cc1C(=O)NCc1ccc(-c2ncc(-c3nc4ccccn4n3)c3[nH]nc(N)c23)cc1 [Example 58, N-(4-(7-([1,2,4]triazolo[1,5-a]pyridin-2-yl)-3-amino-1H-pyrazolo[4,3-c]pyridin-4-yl)benzyl)-5-fluoro-2-methoxybenzamide]
2 | ≤ 1 | 5 to 50 | ≤ 1 | 5 to 50 | 50 to 500 | 5 to 50 | COCCOc1ccc(-c2cnc(-c3ccc(CNC(=O)c4cc(F)ccc4OC)cc3)c3c(N)n[nH]c23)nc1 [Example 59, N-(4-(3-amino-7-(5-(2-methoxyethoxy)pyridin-2-yl)-1H-pyrazolo[4,3-c]pyridin-4-yl)benzyl)-5-fluoro-2-methoxybenzamide]
3 | ≤ 1 | 5 to 50 | ≤ 1 | 5 to 50 | 50 to 500 | 5 to 50 | COc1ccc(F)cc1C(=O)NCc1ccc(-c2ncc(-c3ccc(OCCN(C)C)cn3)c3[nH]nc(N)c23)cc1 [Example 60, N-(4-(3-amino-7-(5-(2-(dimethylamino)ethoxy)pyridin-2-yl)-1H-pyrazolo[4,3-c]pyridin-4-yl)benzyl)-5-fluoro-2-methoxybenzamide]
4 | ≤ 1 | 5 to 50 | ≤ 1 | 5 to 50 | 50 to 500 | 5 to 50 | COc1ccc(F)cc1C(=O)NCc1ccc(-c2ncc(-c3ccc(OCCN4CCOCC4)cn3)c3[nH]nc(N)c23)cc1 [Example 61, N-(4-(3-amino-7-(5-(2-morpholinoethoxy)pyridin-2-yl)-1H-pyrazolo[4,3-c]pyridin-4-yl)benzyl)-5-fluoro-2-methoxybenzamide]
5 | 1 to 5 | 5 to 50 | 1 to 5 | 5 to 50 | 50 to 500 | 50 to 500 | COc1ccc(F)cc1C(=O)NCc1ccc(-c2ncc(-c3ccc(OCCN4CCCC4)cn3)c3[nH]nc(N)c23)cc1 [Example 62, N-(4-(3-amino-7-(5-(2-(pyrrolidin-1-yl)ethoxy)pyridin-2-yl)-1H-pyrazolo[4,3-c]pyridin-4-yl)benzyl)-5-fluoro-2-methoxybenzamide]
6 | 1 to 5 | 1 to 5 | 1 to 5 | 5 to 50 | 50 to 500 | 1 to 5 | COc1ccc(F)cc1C(=O)NCc1ccc(-c2ncc(-c3ccc(C(C)(C)O)cn3)c3[nH]nc(N)c23)cc1 [Example 65, N-(4-(3-amino-7-(5-(2-hydroxypropan-2-yl)pyridin-2-yl)-1H-pyrazolo[4,3-c]pyridin-4-yl)benzyl)-5-fluoro-2-methoxybenzamide]

More lines, now with the values behind:

Row | SMILES | IC50 (BTK C481S) [nM] | IC50 (BTK T474I) [nM] | IC50 (BTK kinase) [nM] | IC50 (EGFR) [nM] | IC50 (ITK) [nM] | IC50 (TEC) [nM]
7 | COc1ccc(F)cc1C(=O)NCc1ccc(-c2ncc(-c3ccn4nccc4n3)c3[nH]nc(N)c23)cc1 [Example 46, N-(4-(3-amino-7-(pyrazolo[1,5-a]pyrimidin-5-yl)-1H-pyrazolo[4,3-c]pyridin-4-yl)benzyl)-5-fluoro-2-methoxybenzamide] | 1 to 5 | 50 to 500 | 1 to 5 | 5 to 50 | > 500 | 5 to 50
8 | COc1ccc(F)cc1C(=O)NCc1ccc(-c2ncc(-c3ccc4cn[nH]c4n3)c3[nH]nc(N)c23)cc1 [Example 47, N-(4-(3-amino-7-(1H-pyrazolo[3,4-b]pyridin-6-yl)-1H-pyrazolo[4,3-c]pyridin-4-yl)benzyl)-5-fluoro-2-methoxybenzamide] | 1 to 5 | 50 to 500 | 1 to 5 | 50 to 500 | > 500 | 5 to 50
9 | COc1ccc(F)cc1C(=O)NCc1ccc(-c2ncc(-c3ccc(C(F)F)cn3)c3[nH]nc(N)c23)cc1 [Example 48, N-(4-(3-amino-7-(5-(difluoromethyl)pyridin-2-yl)-1H-pyrazolo[4,3-c]pyridin-4-yl)benzyl)-5-fluoro-2-methoxybenzamide] | 1 to 5 | 5 to 50 | 1 to 5 | 50 to 500 | 50 to 500 | 5 to 50
10 | COc1ccc(F)cc1C(=O)NCc1ccc(-c2ncc(-c3cn4ccnc4cn3)c3[nH]nc(N)c23)cc1 [Example 50, N-(4-(3-amino-7-(imidazo[1,2-a]pyrazin-6-yl)-1H-pyrazolo[4,3-c]pyridin-4-yl)benzyl)-5-fluoro-2-methoxybenzamide] | 1 to 5 | 50 to 500 | 1 to 5 | 50 to 500 | > 500 | 5 to 50
11 | COc1ccc(F)cc1C(=O)NCc1ccc(-c2ncc(-c3ccc4nccn4n3)c3[nH]nc(N)c23)cc1 [Example 51, N-(4-(3-amino-7-(imidazo[1,2-b]pyridazin-6-yl)-1H-pyrazolo[4,3-c]pyridin-4-yl)benzyl)-5-fluoro-2-methoxybenzamide] | ≤ 1 | 50 to 500 | 1 to 5 | 50 to 500 | > 500 | 5 to 50
12 | COc1ccc(F)cc1C(=O)NCc1ccc(-c2ncc(-c3ccc(C(=O)N4CCOCC4)cn3)c3[nH]nc(N)c23)cc1 [Example 52, N-(4-(3-amino-7-(5-(morpholine-4-carbonyl)pyridin-2-yl)-1H-pyrazolo[4,3-c]pyridin-4-yl)benzyl)-5-fluoro-2-methoxybenzamide] | ≤ 1 | 5 to 50 | ≤ 1 | 50 to 500 | 50 to 500 | 5 to 50
13 | COc1ccc(F)cc1C(=O)NCc1ccc(-c2ncc(-c3ccc(C(=O)N4C[C@H](C)O[C@@H](C)C4)cn3)c3[nH]nc(N)c23)cc1 [Example 53, N-(4-(3-amino-7-(5-((2S,6S)-2,6-dimethylmorpholine-4-carbonyl)pyridin-2-yl)-1H-pyrazolo[4,3-c]pyridin-4-yl)benzyl)-5-fluoro-2-methoxybenzamide] | 1 to 5 | 50 to 500 | 1 to 5 | 50 to 500 | 50 to 500 | 5 to 50
14 | COc1ccc(F)cc1C(=O)NCc1ccc(-c2ncc(-c3ccc(C(=O)N4C[C@@H](C)O[C@H](C)C4)cn3)c3[nH]nc(N)c23)cc1 [Example 54, N-(4-(3-amino-7-(5-((2R,6R)-2,6-dimethylmoroholine-4-carbonyl)pyridin-2-yl)-1H-pyrazolo[4,3-c]pyridin-4-yl)benzyl)-5-fluoro-2-methoxybenzamide] | 1 to 5 | 50 to 500 | 1 to 5 | 50 to 500 | 50 to 500 | 5 to 50
15 | COc1ccc(F)cc1C(=O)NCc1ccc(-c2ncc(-c3ccc(P(C)(C)=O)cn3)c3[nH]nc(N)c23)cc1 [Example 56, N-(4-(3-amino-7-(5-(dimethylphosphoryl)pyridin-2-yl)-1H-pyrazolo[4,3-c]pyridin-4-yl)benzyl)-5-fluoro-2-methoxybenzamide] | 1 to 5 | 5 to 50 | 1 to 5 | 50 to 500 | 50 to 500 | 5 to 50
16 | COc1ccc(F)cc1C(=O)NCc1ccc(-c2ncc(-c3nc4cnccn4n3)c3[nH]nc(N)c23)cc1 [Example 57, N-(4-(7-([1,2,4]triazolo[1,5-a]pyrazin-2-yl)-3-amino-1H-pyrazolo[4,3-c]pyridin-4-yl)benzyl)-5-fluoro-2-methoxybenzamide] | ≤ 1 | 50 to 500 | 1 to 5 | 50 to 500 | > 500 | 50 to 500
